Here are results for 40 substances from patent publication US20120214862A1, “MODULATION OF FACTOR 7 EXPRESSION” (ISIS Pharmaceuticals, Inc., priority 2009, published 2012).

In the oligonucleotide strings, read from the 5' end, every base follows the letter of its sugar. An asterisk marks phosphorothioate; unmarked linkages are phosphodiester. Other units and linkages are bracketed, terminal groups are in braces. A string of capitals states the bases alone. e = 2'-O-(2-methoxyethyl) (MOE); [5mC] = 5-methylcytosine; d = 2'-deoxy (DNA)

The test system of this data set is human Factor 7 mRNA. Briefly: Antisense inhibition of human Factor 7 mRNA in HepB3 cells, lipofectin, 50 nM, real-time RT-PCR. The class given is cell-based. To be noted: for % Inhibition (human Factor 7 mRNA): 50 nM, ~24 h. The essentials: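 After transfection of wells containing 4,000 cells, treatment ran for approximately 24 h. RIBOGREEN®-measured total RNA served for normalisation, and inhibition was calculated as a percentage of untreated control.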
A general note: Real-time PCR tracks product formation cycle by cycle.

[1] abbreviates: Example 1, HepB3 cells, lipofectin, relative to untreated control cells.
Where [2] appears, read: HepB3 cells, gapmers targeted to nucleobases 13760 to 13789 of SEQ ID NO: 1 (Table 10).
Setting [3] is: Example 4, HepB3 cells, lipofectin, relative to untreated control.
Setting [4] is: HepB3 cells, lipofectin, 50 nM antisense oligonucleotide, approximately 24 hours, primer probe set RTS 2927, relative to untreated control.
The mark [5] stands for this setting: Example 6 microwalk, nucleobases 15098 to 15122 of SEQ ID NO: 1, HepB3, lipofectin.
Setting [6] is: HepB3 cells, gapmers targeted to nucleobases 11830 to 11869 of SEQ ID NO: 1 (Table 9).
[7] abbreviates: HepB3 cells, gapmers (5-10-5, 3-14-3, 2-13-5 MOE) targeted to nucleobases 4868 to 4899 of SEQ ID NO: 1.
The mark [8] stands for this setting: HepB3 cells, gapmers targeted to nucleobases 14707 to 14732 of SEQ ID NO: 1 (Table 11).

In the case of “407603 (antisense eT*eA*eA*eG*eA*dA*dA*dT*d[5mC]*d[5mC]*dA*dG*dA*dA*d[5mC]*eA*eG*e[5mC]*eT*eT) [compound 407603]”, the “% Inhibition (human Factor 7 mRNA)” value under setting [1] was 54%. In the case of “422185 (antisense e[5mC]*eT*eG*d[5mC]*dG*d[5mC]*d[5mC]*dA*d[5mC]*d[5mC]*d[5mC]*dG*d[5mC]*d[5mC]*dG*dG*d[5mC]*eT*e[5mC]*eT) [compound 422185]”, under setting [2], the “% Inhibition of human Factor 7 mRNA levels” value came to 48%. Take “422190 (antisense eG*e[5mC]*eG*d[5mC]*dG*dG*dA*dA*dG*dA*dA*dG*dG*dG*dA*d[5mC]*dG*eG*eA*eA) [compound 422190]”: under setting [3], the “% Inhibition (human Factor 7 mRNA)” value is recorded as 12%.

On to “403093 (antisense eG*eA*eG*eA*e[5mC]*d[5mC]*d[5mC]*dT*dG*dG*dT*dG*dT*dA*d[5mC]*eA*e[5mC]*e[5mC]*e[5mC]*e[5mC]) [compound 403093]”, for which the “% Inhibition (human Factor 7 mRNA)” value under setting [1] came to 75%. “407961 (antisense eA*eA*eG*eT*eA*dG*dA*dT*dG*dA*dT*dG*d[5mC]*d[5mC]*dT*eG*eA*eG*eT*eG) [compound 407961]”: under setting [1], the “% Inhibition (human Factor 7 mRNA)” value is given as 34%.

For “416567 (antisense eT*eG*eG*eT*eG*dG*d[5mC]*dA*d[5mC]*d[5mC]*dA*dG*dA*dT*dG*eT*e[5mC]*eT*eG*eA) [compound 416567]”, the “% Inhibition of human Factor 7 mRNA levels” value under setting [4] is on record as 2%. Regarding “422262 (antisense e[5mC]*eT*dG*d[5mC]*dG*d[5mC]*d[5mC]*dA*d[5mC]*d[5mC]*d[5mC]*dG*d[5mC]*d[5mC]*dG*eG*e[5mC]*eT*e[5mC]*eT) [compound 422262]”, under setting [2], the “% Inhibition of human Factor 7 mRNA levels” value was 0%. As to “422287 (antisense e[5mC]*eA*dG*d[5mC]*dA*d[5mC]*dA*d[5mC]*dA*dT*dG*dG*dA*dG*dT*e[5mC]*eA*eG*e[5mC]*eA) [compound 422287]”, the “% Inhibition (human Factor 7 mRNA)” value under setting [5] was determined as 41%.

As for “407610 (antisense eA*eG*eG*eG*eA*dG*dG*d[5mC]*dA*dG*dA*dA*dG*d[5mC]*dA*eG*eA*eT*eA*eT) [compound 407610]”, the “% Inhibition (human Factor 7 mRNA)” value under setting [1] is 31%. Take “422167 (antisense eG*eA*eG*dG*dA*dG*dA*d[5mC]*dA*dA*dT*dG*dG*dT*d[5mC]*dA*dG*eG*eG*e[5mC]) [compound 422167]”: the “% Inhibition of human Factor 7 mRNA levels” value under setting [6] turned out to be 53%. For “416498 (antisense eG*eG*e[5mC]*e[5mC]*eA*dG*dT*dG*dG*d[5mC]*d[5mC]*dA*dT*dG*d[5mC]*eA*eT*e[5mC]*e[5mC]*e[5mC]) [compound 416498]”, the “% Inhibition of human Factor 7 mRNA levels” value under setting [4] was found to be 5%.

For the substance “407896 (antisense e[5mC]*eG*eT*eG*eT*dG*dG*dT*d[5mC]*dA*d[5mC]*dT*dG*d[5mC]*dA*eG*eT*eA*e[5mC]*eT) [compound 407896]”, the “% Inhibition (human Factor 7 mRNA)” value under setting [1] is reported as 73%. Consider “416457 (antisense eG*eG*eA*eT*eG*dA*dT*dG*dA*d[5mC]*d[5mC]*dT*dG*d[5mC]*dG*e[5mC]*e[5mC]*eA*e[5mC]*e[5mC]) [compound 416457]”, for which, under setting [4], the “% Inhibition of human Factor 7 mRNA levels” value was determined as 48%.

Regarding “407638 (antisense eG*e[5mC]*e[5mC]*eA*e[5mC]*dT*d[5mC]*dG*dA*dT*dG*dT*dA*d[5mC]*dT*eG*eG*eG*eA*eG) [compound 407638]”, the “% Inhibition (human Factor 7 mRNA)” value under setting [1] is 0%. With “416524 (antisense eT*eA*eA*eT*eT*dT*dA*dA*dT*dA*dT*dT*d[5mC]*dA*dG*eA*eT*eG*eG*eT) [compound 416524]”, the “% Inhibition of human Factor 7 mRNA levels” value under setting [4] is reported as 0%.

For “422220 (antisense e[5mC]*e[5mC]*e[5mC]*dG*dA*dG*dT*dT*d[5mC]*dT*dG*d[5mC]*dA*dG*dG*dA*dG*e[5mC]*eG*eG) [compound 422220]”, the “% Inhibition of human Factor 7 mRNA levels” value under setting [7] amounted to 59%. As to “416542 (antisense e[5mC]*eA*eG*eG*eG*dT*dG*d[5mC]*d[5mC]*d[5mC]*dA*dT*d[5mC]*d[5mC]*dT*eA*eG*eT*e[5mC]*eA) [compound 416542]”, the “% Inhibition of human Factor 7 mRNA levels” value under setting [4] is listed as 56%. As to “422277 (antisense e[5mC]*e[5mC]*dT*dG*dA*dG*dG*d[5mC]*d[5mC]*dA*dG*d[5mC]*dA*dG*dA*eT*e[5mC]*eA*e[5mC]*eG) [compound 422277]”, the “% Inhibition of human Factor 7 mRNA levels” value under setting [8] is recorded as 56%. With “422151 (antisense eT*eG*e[5mC]*dA*dT*dG*dG*dT*dG*dA*dT*dG*d[5mC]*dT*dT*d[5mC]*dT*eG*eA*eA) [compound 422151]”, where the note is “HepB3 cells, gapmers targeted to nucleobases 15188 to 15211 of SEQ ID NO: 1 (Table 13)”, the “% Inhibition of human Factor 7 mRNA levels” value is reported as 68%.

Take “422239 (antisense eG*eA*d[5mC]*dA*dA*dT*dG*dG*dT*d[5mC]*dA*dG*dG*dG*d[5mC]*eT*eG*eG*eT*eT) [compound 422239]”: the “% Inhibition of human Factor 7 mRNA levels” value under setting [6] is 67%. For the substance “407652 (antisense eT*eG*eG*eG*eA*dG*d[5mC]*dT*dA*d[5mC]*dA*dG*d[5mC]*d[5mC]*dT*e[5mC]*eA*eA*eA*e[5mC]) [compound 407652]”, the “% Inhibition (human Factor 7 mRNA)” value under setting [1] was 30%. Consider “422095 (antisense eA*e[5mC]*eA*eA*eT*dG*dG*dT*d[5mC]*dA*dG*dG*dG*d[5mC]*dT*eG*eG*eT*eT*eT) [compound 422095]”, for which the “% Inhibition of human Factor 7 mRNA levels” value under setting [6] is 60%. Take “422175 (antisense e[5mC]*eG*e[5mC]*d[5mC]*dG*dG*d[5mC]*dT*d[5mC]*dT*dG*d[5mC]*dT*d[5mC]*dA*dT*d[5mC]*e[5mC]*e[5mC]*e[5mC]) [compound 422175]”: the “% Inhibition of human Factor 7 mRNA levels” value under setting [2] came to 69%. Turning to “422248 (antisense eG*eG*d[5mC]*dT*dG*dA*dG*dG*dA*dG*dA*d[5mC]*dA*dA*dT*eG*eG*eT*e[5mC]*eA) [compound 422248]”, the “% Inhibition of human Factor 7 mRNA levels” value under setting [6] is given as 60%. With “422289 (antisense eG*eA*d[5mC]*dA*dG*d[5mC]*dA*d[5mC]*dA*d[5mC]*dA*dT*dG*dG*dA*eG*eT*e[5mC]*eA*eG) [compound 422289]”, under setting [5], the “% Inhibition (human Factor 7 mRNA)” value is listed as 34%. Regarding “422280 (antisense e[5mC]*eA*dG*d[5mC]*d[5mC]*dT*dG*dA*dG*dG*d[5mC]*d[5mC]*dA*dG*d[5mC]*eA*eG*eA*eT*e[5mC]) [compound 422280]”, the “% Inhibition of human Factor 7 mRNA levels” value under setting [8] is on record as 52%. Take “422284 (antisense e[5mC]*eA*d[5mC]*dA*d[5mC]*dA*dT*dG*dG*dA*dG*dT*d[5mC]*dA*dG*e[5mC]*eA*eT*e[5mC]*eG) [compound 422284]”: the “% Inhibition (human Factor 7 mRNA)” value under setting [5] was 43%. As to “407892 (antisense e[5mC]*e[5mC]*e[5mC]*e[5mC]*eA*dT*dT*d[5mC]*dT*dG*dG*d[5mC]*dA*dT*dG*eG*eA*e[5mC]*eT*eT) [compound 407892]”, under setting [1], the “% Inhibition (human Factor 7 mRNA)” value is 68%. Regarding “416423 (antisense eG*eT*eG*eT*eT*dT*d[5mC]*dT*d[5mC]*d[5mC]*dT*d[5mC]*d[5mC]*dT*dG*eA*eG*eG*e[5mC]*e[5mC]) [compound 416423]”, the “% Inhibition of human Factor 7 mRNA levels” value under setting [4] is recorded as 51%. Turning to “422124 (antisense eT*eG*eA*eG*e[5mC]*dG*d[5mC]*dG*dG*dA*dA*dG*dA*dA*dG*eG*eG*eA*e[5mC]*eG) [compound 422124]”, under setting [3], the “% Inhibition (human Factor 7 mRNA)” value is reported as 0%. For “422242 (antisense eG*eG*dA*dG*dA*d[5mC]*dA*dA*dT*dG*dG*dT*d[5mC]*dA*dG*eG*eG*e[5mC]*eT*eG) [compound 422242]”, the “% Inhibition of human Factor 7 mRNA levels” value under setting [6] was 64%. On to “407922 (antisense eT*e[5mC]*eG*eA*e[5mC]*dG*d[5mC]*dA*dG*d[5mC]*d[5mC]*dT*dT*dG*dG*e[5mC]*eT*eT*eT*e[5mC]) [compound 407922]”, for which, under setting [1], the “% Inhibition (human Factor 7 mRNA)” value stood at 82%. Consider “416543 (antisense eT*e[5mC]*e[5mC]*eT*eG*d[5mC]*dG*dA*dG*dT*dG*dG*dG*dA*dG*eT*eT*eG*eG*eA) [compound 416543]”, for which, under setting [4], the “% Inhibition of human Factor 7 mRNA levels” value was 0%.

For the substance “416480 (antisense eA*eA*eG*eT*eG*dA*dG*dA*dG*d[5mC]*dT*dA*dA*dA*d[5mC]*eA*eA*e[5mC]*e[5mC]*eG) [compound 416480]”, under setting [4], the “% Inhibition of human Factor 7 mRNA levels” value is recorded as 25%. For the substance “416509 (antisense eA*eG*eG*eA*eG*d[5mC]*d[5mC]*d[5mC]*dG*dA*dG*dT*dT*d[5mC]*dT*eG*e[5mC]*eA*eG*eG) [compound 416509]”, the “% Inhibition of human Factor 7 mRNA levels” value by setting is: under setting [4], 56%; under setting [7], 60%. As to “407644 (antisense eG*eA*eG*eG*eA*d[5mC]*dA*dG*d[5mC]*dA*d[5mC]*dA*d[5mC]*dA*dT*eG*eG*eA*eG*eT) [compound 407644]”, the “% Inhibition (human Factor 7 mRNA)” value under setting [1] was 66%. In the case of “416452 (antisense e[5mC]*e[5mC]*eA*eA*e[5mC]*dA*dA*d[5mC]*dA*dG*dG*dA*d[5mC]*d[5mC]*dT*eG*e[5mC]*e[5mC]*eA*eT) [compound 416452]”, under setting [4], the “% Inhibition of human Factor 7 mRNA levels” value is 19%. Turning to “422202 (antisense eA*eG*e[5mC]*d[5mC]*dT*dG*dA*dG*dG*d[5mC]*d[5mC]*dA*dG*d[5mC]*dA*dG*dA*eT*e[5mC]*eA) [compound 422202]”, the “% Inhibition of human Factor 7 mRNA levels” value under setting [8] was determined as 49%. With “422214 (antisense eT*eT*e[5mC]*dT*dG*d[5mC]*dA*dG*dG*dA*dG*d[5mC]*dG*dG*d[5mC]*d[5mC]*dT*eA*eA*eA) [compound 422214]”, the “% Inhibition of human Factor 7 mRNA levels” value under setting [7] was determined as 60%. Consider “416520 (antisense e[5mC]*e[5mC]*e[5mC]*eT*e[5mC]*dT*dG*d[5mC]*dA*dA*dA*dT*dA*dT*dG*eG*eG*eA*e[5mC]*e[5mC]) [compound 416520]”, for which the “% Inhibition of human Factor 7 mRNA levels” value under setting [4] was 14%.
